Here are results for four compounds from ChEMBL document CHEMBL1201862, “PubChem BioAssay data set” (2004).

Calls of active or inactive are those of the source.

Assay [1] has as its system Streptococcus sp. 'group A'. In words: Streptococcus pyogenes SK(-)GAS viability under kanamycin – luminescence, BacTiterGlo, confirmation, counter-screen for streptokinase expression inhibitor project, dose response (AID 1900). It is filed as functional, organism-based. For orientation: Counterscreens check selectivity or assay interference.
The target in a further assay is T1, Streptokinase A (Streptococcus pyogenes serotype M1, UniProt P10520).
T1 sequence (P10520 whole entry): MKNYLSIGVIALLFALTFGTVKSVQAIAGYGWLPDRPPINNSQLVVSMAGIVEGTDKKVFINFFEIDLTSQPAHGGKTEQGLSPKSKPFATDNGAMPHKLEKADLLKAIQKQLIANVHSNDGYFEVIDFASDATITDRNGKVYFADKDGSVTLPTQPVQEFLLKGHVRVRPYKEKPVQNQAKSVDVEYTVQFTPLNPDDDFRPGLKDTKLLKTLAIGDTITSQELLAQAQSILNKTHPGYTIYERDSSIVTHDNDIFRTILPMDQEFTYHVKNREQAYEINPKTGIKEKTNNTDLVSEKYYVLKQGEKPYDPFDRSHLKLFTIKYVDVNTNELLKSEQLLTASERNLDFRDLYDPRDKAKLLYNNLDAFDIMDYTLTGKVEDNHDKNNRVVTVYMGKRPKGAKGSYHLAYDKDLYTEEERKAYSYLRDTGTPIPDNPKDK
Put plainly: viability-normalized secreted streptokinase activity reduction – plasminogen activation absorbance, OD405, dose response (AID 1914).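 Also: secreted streptokinase activity via plasminogen activation per viability signal from cell pellet.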 The class given is functional, Streptococcus pyogenes M1 GAS.

The next assay deals with Streptococcus. In words: GAS UMAA2166 growth inhibition – luminescence, BacTiterGlo, counter-screen for streptokinase expression inhibitor project, dose response (AID 1915).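 Also: potency for reduction of bacterial viability or growth.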 The class given is functional, organism-based.
In a further assay the test system is Escherichia coli. In words: microbe, parasite or virus in culture.
The target of assay [2] is T2, Microphthalmia-associated transcription factor (Homo sapiens, UniProt O75030).
T2 sequence (O75030 whole entry): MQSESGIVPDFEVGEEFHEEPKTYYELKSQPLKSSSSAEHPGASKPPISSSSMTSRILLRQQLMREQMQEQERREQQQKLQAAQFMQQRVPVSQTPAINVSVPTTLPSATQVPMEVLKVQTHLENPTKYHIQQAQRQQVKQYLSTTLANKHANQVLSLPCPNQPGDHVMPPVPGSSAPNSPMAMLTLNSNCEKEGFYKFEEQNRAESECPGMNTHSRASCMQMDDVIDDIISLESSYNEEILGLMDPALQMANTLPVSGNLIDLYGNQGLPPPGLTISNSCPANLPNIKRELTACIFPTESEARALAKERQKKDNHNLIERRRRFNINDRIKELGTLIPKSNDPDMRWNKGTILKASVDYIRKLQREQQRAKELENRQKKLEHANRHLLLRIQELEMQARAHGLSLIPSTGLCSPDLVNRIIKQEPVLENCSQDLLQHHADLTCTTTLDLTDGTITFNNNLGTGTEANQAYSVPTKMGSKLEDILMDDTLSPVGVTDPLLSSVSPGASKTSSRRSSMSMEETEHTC
Put plainly: reducers of TRPM1 reporter luminescence, concentration series – cell-based, SK-MEL-5, cherry-picked, set 3, MITF inhibitor project, dose response (AID 493073).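 Also: SK-MEL-5 melanoma cells with luciferase driven by the MITF target TRPM1 promoter.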 It is filed as functional.

The subject of the next assay is A-375. Put plainly: MITF: Counter assay: A375 proliferation Measured in Cell-Based System Using Plate Reader - 2084-03_Inhibitor_Dose_DryPowder_Activity. [Related pubchem assays (depositor defined):AID488944]. It is filed as functional. Particulars: Homo sapiens.
Assay [3] can be described thus: A549 cell cytotoxicity, dose response, cytotoxicity control, plate reader, cherry-pick, antagonist series (AID 743412). It is filed as functional, cell-based.
Assay [4] in a line: toxicity toward HepG2 liver cells – cell-based, plate reader, cherry-pick, antagonist series, cytotoxicity control, dose response (AID 743416). The class given is functional.
A short description of assay [5]: blockers of bursicon-stimulated LGR2 cAMP reporter – cell-based, HEK293, CRE-luciferase reporter, cherry pick, set 2, dose response (AID 743343).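 Also: transfected cells were stimulated with diluted bursicon conditioned medium after compound addition.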 The class given is functional. A general note: Reporter assays use an easily measured gene product as a stand-in for the process of interest.
Assay [6] in a line: blockade of melanocortin 4 receptor signaling – cell-based, plate reader, cherry pick, counter-screen for LGR2 antagonist project, dose response (AID 743444).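 Also: transfected HEK 293 cells stimulated with alpha-MSH peptide; potency of inhibitors of the alpha-MSH evoked signal.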 The class given is functional.
Assay [7] is described as follows: viability loss in HEK293 cells – cell-based, plate reader, cherry-picked samples, cytotoxicity control, dose response (AID 743446). It is filed as functional.
A short description of assay [8]: Trypanosoma cruzi growth suppression in host cells – NIH3T3 host cells, beta-gal luminescence, confirmation (AID 2044).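 Also: intracellular parasites grown in NIH/3T3 mouse fibroblasts as host cells; luminescent beta-galactosidase reporter signal from transgenic T. cruzi replicating inside host cells; inhibitors lower the luminescence signal.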 The class given is functional, cell-based.
Assay [9] is described as follows: microbe, parasite or virus in culture. The class given is functional. Particulars: Mycobacterium tuberculosis.
Assay [10] in a line: NIH3T3 cell viability loss – ATP luminescence, mouse fibroblasts, counter-screen, dose response (AID 2010).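 Also: cells exposed to compound for about 90 hours before reading.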 The class given is functional, cell-based.
A short description of assay [11]: THP-1 cell cytotoxicity, dose response, cytotoxicity control for non-replicating M. tuberculosis project (AID 489025). It is filed as functional.
Assay [12] in a line: HepG2 cell cytotoxicity, dose response, cytotoxicity control for non-replicating M. tuberculosis project (AID 489018). Particulars: Mycobacterium tuberculosis. It is filed as functional.
A short description of assay [13]: Vero E6 cell cytotoxicity, dose response, cytotoxicity control for non-replicating M. tuberculosis project, secondary assay (AID 492998). The class given is functional, VeroE6. Particulars: Vero C1008.
Assay [14] addresses Dual specificity protein phosphatase 3 (Homo sapiens, UniProt P51452). Put plainly: SAR VHR1 Fluorescent Assay for In Vitro dose response studies Set 3. [Related pubchem assays (depositor defined):AID1654, AID1661, AID1878]. It is filed as functional.
Assay [15] concerns the target T3, Tyrosine-protein phosphatase non-receptor type 7 (Homo sapiens, UniProt P35236).
T3 sequence (P35236 whole entry): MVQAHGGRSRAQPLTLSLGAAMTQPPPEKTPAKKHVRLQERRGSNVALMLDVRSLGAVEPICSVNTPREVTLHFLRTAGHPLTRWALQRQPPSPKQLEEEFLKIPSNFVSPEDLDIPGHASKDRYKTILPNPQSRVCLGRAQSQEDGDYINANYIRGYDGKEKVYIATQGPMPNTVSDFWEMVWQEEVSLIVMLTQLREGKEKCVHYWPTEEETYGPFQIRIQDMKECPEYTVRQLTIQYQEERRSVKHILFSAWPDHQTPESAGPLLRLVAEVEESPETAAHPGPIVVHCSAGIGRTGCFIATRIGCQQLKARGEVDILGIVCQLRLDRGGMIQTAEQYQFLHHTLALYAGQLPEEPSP
It is filed as functional.

Assay [16] has as its target Glyceraldehyde-3-phosphate dehydrogenase (Homo sapiens, UniProt P04406).
The target of assay [17] is Heat shock cognate 71 kDa protein (Homo sapiens, UniProt P11142). Put plainly: In Vitro Hsc70 Dose Response Fluorescence Polarization Assay. [Related pubchem assays: 1072 ]. In general terms: Fluorescence polarisation rises when a labelled molecule tumbles more slowly, as on binding a larger partner.
Chain of Heat shock cognate 71 kDa protein (P11142 whole entry): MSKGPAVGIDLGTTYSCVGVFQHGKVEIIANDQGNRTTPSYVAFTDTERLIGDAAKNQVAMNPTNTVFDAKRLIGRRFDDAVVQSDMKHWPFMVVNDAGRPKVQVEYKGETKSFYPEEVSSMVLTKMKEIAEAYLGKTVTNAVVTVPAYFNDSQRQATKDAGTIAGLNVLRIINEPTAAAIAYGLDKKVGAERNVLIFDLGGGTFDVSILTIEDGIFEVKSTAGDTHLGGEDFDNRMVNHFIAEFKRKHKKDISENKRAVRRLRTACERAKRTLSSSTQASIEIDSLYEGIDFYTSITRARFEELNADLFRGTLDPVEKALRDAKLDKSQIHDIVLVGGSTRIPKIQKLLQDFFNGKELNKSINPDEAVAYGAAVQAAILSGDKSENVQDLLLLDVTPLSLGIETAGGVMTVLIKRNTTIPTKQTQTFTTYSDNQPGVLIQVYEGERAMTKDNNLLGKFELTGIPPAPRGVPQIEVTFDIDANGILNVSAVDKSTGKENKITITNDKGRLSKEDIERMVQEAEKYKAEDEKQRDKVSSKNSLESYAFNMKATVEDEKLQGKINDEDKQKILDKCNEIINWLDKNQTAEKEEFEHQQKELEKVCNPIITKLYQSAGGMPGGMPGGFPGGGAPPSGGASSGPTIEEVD
Assay [18] deals with Heat shock 70 kDa protein 1A (Homo sapiens, UniProt P0DMV8). Put plainly: inhibition of Hsp70 binding activity – biochemical, fluorescence polarization, SAR follow-up (AID 1072).
Chain of Heat shock 70 kDa protein 1A (P0DMV8 whole entry): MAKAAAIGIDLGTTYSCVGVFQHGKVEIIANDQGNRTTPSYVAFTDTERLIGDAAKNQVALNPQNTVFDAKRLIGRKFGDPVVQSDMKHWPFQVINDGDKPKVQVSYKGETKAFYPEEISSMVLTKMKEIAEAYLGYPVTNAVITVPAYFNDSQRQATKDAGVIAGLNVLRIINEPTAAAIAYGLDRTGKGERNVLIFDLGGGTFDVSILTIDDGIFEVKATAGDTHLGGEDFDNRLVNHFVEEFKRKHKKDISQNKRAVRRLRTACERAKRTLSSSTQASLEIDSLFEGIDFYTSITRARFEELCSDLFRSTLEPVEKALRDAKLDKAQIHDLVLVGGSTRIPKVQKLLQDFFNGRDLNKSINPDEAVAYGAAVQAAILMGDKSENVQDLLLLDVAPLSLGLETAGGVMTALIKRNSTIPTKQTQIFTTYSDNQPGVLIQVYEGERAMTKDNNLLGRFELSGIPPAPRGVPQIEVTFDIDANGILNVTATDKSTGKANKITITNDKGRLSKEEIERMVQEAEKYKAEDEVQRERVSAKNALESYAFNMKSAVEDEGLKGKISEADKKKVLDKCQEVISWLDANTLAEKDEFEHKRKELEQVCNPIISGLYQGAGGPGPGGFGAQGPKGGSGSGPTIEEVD
Assay [19] deals with T4, Dual specificity protein phosphatase 6 (Rattus norvegicus, UniProt Q64346).
T4 sequence (Q64346 whole entry): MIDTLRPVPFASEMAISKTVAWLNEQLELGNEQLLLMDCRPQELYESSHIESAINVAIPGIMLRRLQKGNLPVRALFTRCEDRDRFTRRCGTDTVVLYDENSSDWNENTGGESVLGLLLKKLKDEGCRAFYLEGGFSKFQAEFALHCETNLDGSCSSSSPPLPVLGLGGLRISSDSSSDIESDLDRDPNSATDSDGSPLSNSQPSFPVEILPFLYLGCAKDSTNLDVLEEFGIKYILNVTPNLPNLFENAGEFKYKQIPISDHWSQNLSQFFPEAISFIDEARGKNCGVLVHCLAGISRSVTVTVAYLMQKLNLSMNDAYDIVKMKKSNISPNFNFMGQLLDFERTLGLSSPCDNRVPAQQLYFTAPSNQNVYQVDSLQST

The target of assay [20] is T4, Dual specificity protein phosphatase 6. It is filed as functional.

Chain of Dual specificity protein phosphatase 3 (P51452 whole entry): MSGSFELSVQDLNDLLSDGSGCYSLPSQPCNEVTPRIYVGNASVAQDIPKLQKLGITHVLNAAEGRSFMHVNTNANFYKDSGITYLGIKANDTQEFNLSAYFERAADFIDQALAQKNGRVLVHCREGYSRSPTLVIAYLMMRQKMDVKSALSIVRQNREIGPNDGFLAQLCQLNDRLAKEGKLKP
Chain of Glyceraldehyde-3-phosphate dehydrogenase (P04406 whole entry): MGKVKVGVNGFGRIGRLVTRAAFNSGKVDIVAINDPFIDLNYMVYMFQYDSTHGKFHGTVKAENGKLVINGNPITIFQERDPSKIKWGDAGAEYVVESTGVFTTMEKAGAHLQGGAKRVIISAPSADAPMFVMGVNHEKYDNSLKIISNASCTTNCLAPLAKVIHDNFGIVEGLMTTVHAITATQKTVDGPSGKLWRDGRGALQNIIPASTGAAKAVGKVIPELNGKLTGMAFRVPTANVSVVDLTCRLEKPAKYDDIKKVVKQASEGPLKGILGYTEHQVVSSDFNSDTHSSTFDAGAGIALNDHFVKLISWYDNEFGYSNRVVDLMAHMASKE

With `Cc1ccc(NC(=O)NCc2ccccn2)cc1Cl`, the EC50 (in [1]; on Streptokinase A; in the assay on Streptococcus) was > 150 µM (not active) throughout. Further, the AC50 in the assay with Escherichia coli is 343 µM (active).
As for `Cc1ccccc1-c1nc(-c2ccccn2)no1`, the AC50 in assay [2] is 4.18 µM (active); with A-375 it was 14.8 µM (active); in assay [3], 12.9 µM (active); in assay [4], 23 µM (active); in [5], 1.81 µM (active); in assay [6] it was 1.8 µM (active). In addition, the AC50 in [7] is 17.1 µM (active).
Regarding `COc1cccc2sc(Nc3nnc(-c4cccs4)o3)nc12`, the EC50 is 0.415 µM (active) in assay [8] and 2.96 µM (active) in assay [10]. The CC50 in assay [9] is 27.8 µM (active); in assay [11] it was 11.2 µM (active); in assay [12], > 20 µM (active); in assay [13] it was 11.1 µM (active). Also, the IC50 in assay [14] was 15.6 µM (active).
Consider `CCOc1cc2c(c([N+](=O)[O-])c1)NC(C(=O)O)C1CC=CC21` (centres undefined), for which the IC50 is > 100 µM (not active) in assay [15]; > 100 µM (not active) in assay [16]; > 100 µM (not active) in assay [17]; > 100 µM (not active) in assay [18]; > 100 µM (inactive) in assay [19]; > 100 µM (inactive) in [20].

By EC50 is commonly meant the midpoint of the concentration-response curve. As a reminder, the AC50 is the concentration giving half of the maximal activity seen. By IC50 is commonly meant the concentration needed to halve the response being measured.
